Each structure is given as a SMILES string.

Among the data in ChEMBL document CHEMBL3232992, “Synthesis and the hepatoprotective activity of dibenzocyclooctadiene lignan derivatives” (2014) are Survival values, retold here.

The test system of the assay is L02. Put plainly: Hepatoprotective activity against carbon tetrachloride-induced toxicity in human HL-7702 cells assessed as increase of cell survival rate at 0.2 ug/ul pretreated for 12 hrs before carbon tetrachloride addition by MTS assay relative to control. In kind it is functional. (In general: Formazan colour is commonly taken as a measure of viable cells.)
Regarding `COc1c(Br)c2c(c(OC)c1OC)-c1c(c(Br)c3c(c1OC)OCO3)C[C@H](C)[C@H](C)C2`, the Survival is listed as 63.4%.

As for `COc1cc2c(c(OC)c1OC)-c1c(O)c(OC)c(OC)c(Cl)c1C[C@H](C)[C@H](C)C2`, the Survival is given as 63%.

As to `COc1c(I)c2c(c(OC)c1OC)-c1c(c(I)c3c(c1OC)OCO3)C[C@H](C)[C@H](C)C2`, the Survival is on record as 90%.

As to `COc1cc2c(c(OC)c1OC)-c1c(c(Br)c(OC)c(OC)c1OC)C[C@](C)(O)[C@@H](C)C2`, the Survival is recorded as 50%.

For `COc1c(Br)c2c(c(OC)c1OC)-c1c(c(Br)c(OC)c(OC)c1OC)C[C@](C)(O)[C@@H](C)C2`, the Survival turned out to be 54.2%.

As to `COc1cc2c(c(OC)c1OC)-c1c(cc3c(c1OC)OCO3)C[C@H](C)[C@H](C)C2` [WUWEIZISU B], the Survival is 42.8%.

For the compound `COc1cc2c(c(OC)c1OC)-c1c(cc(OC)c(OC)c1OC(C)=O)C[C@H](C)[C@H](C)C2`, the Survival stood at 65%.

In the case of `COc1c(O)c2c(c(Br)c1OC)C[C@H](C)[C@H](C)Cc1c(Br)c(OC)c(OC)c(OC)c1-2`, the Survival was 83%.

On to `COc1cc2c(c(OC)c1OC)-c1c(c(I)c(OC)c(OC)c1OC)C[C@](C)(O)[C@@H](C)C2`, for which the Survival was determined as 40.9%.

`COc1c(Cl)c2c(c(OC)c1OC)-c1c(c(Cl)c3c(c1OC)OCO3)C[C@H](C)[C@H](C)C2`: the Survival is recorded as 51.8%.

As to `COC1=C(OC)C23C(=CC1=O)CC(C)C2(C)Cc1cc(OC)c(OC)c(OC)c13` (stereo unspecified), the Survival is 34.6%.

Regarding `COc1cc2c(c(O)c1OC)-c1c(cc(OC)c(OC)c1OC)C[C@@H](C)[C@@H](C)C2` [SCHISANHENOL], the Survival came to 48.1%.

With `COc1c(Cl)c2c(c(OC)c1OC)-c1c(cc3c(c1OC)OCO3)C[C@H](C)[C@H](C)C2`, the Survival is on record as 43.4%.

On to `COc1c(Br)c2c(c(OC)c1OC)-c1c(cc3c(c1OC)OCO3)C[C@H](C)[C@H](C)C2`, for which the Survival worked out at 49.1%.

Turning to `COc1cc2c(c(OC)c1OC)-c1c(c(Cl)c(OC)c(OC)c1OC)C[C@](C)(O)[C@@H](C)C2`, the Survival came to 44%.

As for `COC1=C(OC)C(=O)C2=C(C[C@H](C)[C@H](C)Cc3cc(OC)c(OC)c(OC)c32)C1=O`, the Survival worked out at 85.5%.

Take `COc1c(OC)c(C(C)=O)c2c(c1OC)-c1c(cc3c(c1OC)OCO3)C[C@H](C)[C@H](C)C2`: the Survival is on record as 44.4%.

In the case of `COc1c(O)c2c(c(Cl)c1OC)C[C@H](C)[C@H](C)Cc1c(Cl)c(OC)c(OC)c(OC)c1-2`, the Survival stood at 98.5%.

For `COc1c(Br)c2c(c(OC)c1OC)-c1c(c(OC)c(OC)c(OC)c1OC)C[C@](C)(O)[C@@H](C)C2`, the Survival came out at 73.6%.

`COc1c(I)c2c(c(OC)c1OC)-c1c(c(I)c(OC)c(OC)c1OC)C[C@](C)(O)[C@@H](C)C2`: the Survival worked out at 45%.

Turning to `COC1=C(OC)C(OC(C)=O)C2=C(C[C@H](C)[C@H](C)Cc3cc(OC)c(OC)c(OC)c32)C1=O` (stereo partly specified), the Survival was 52.7%.

Take `COC(=O)c1cc(OC)c2c(c1-c1c(C(=O)OC)cc(OC)c3c1OCO3)OCO2` [BIFENDATE]: the Survival is recorded as 40.3%.

In the case of `COc1cc2c(c(OC)c1OC)-c1c(cc(OC)c(OC)c1OC)C[C@](C)(O)[C@@H](C)C2` [SCHIZANDRIN], the Survival is 43.3%.

For the compound `COc1cc2c(c(OC)c1OC)-c1c(O)c(OC)c(OC)c(Br)c1C[C@H](C)[C@H](C)C2`, the Survival is given as 82%.

Consider `COc1c(Cl)c2c(c(OC)c1OC)-c1c(c(Cl)c(OC)c(OC)c1OC)C[C@](C)(O)[C@@H](C)C2`, for which the Survival came to 44%.

On to `COc1c(O)c2c(c(I)c1OC)C[C@H](C)[C@H](C)Cc1c(I)c(OC)c(OC)c(OC)c1-2`, for which the Survival worked out at 50%.
